Data: article PMC3152581 (Journal of natural products, 2010)

Target: BACE1 (memapsin-2) (Homo sapiens, UniProt P56817)
Assay: BACE1 assay
Type: biochemical
Settings: biological screening; result in words

Chain of BACE1 (memapsin-2) (P56817 46-501): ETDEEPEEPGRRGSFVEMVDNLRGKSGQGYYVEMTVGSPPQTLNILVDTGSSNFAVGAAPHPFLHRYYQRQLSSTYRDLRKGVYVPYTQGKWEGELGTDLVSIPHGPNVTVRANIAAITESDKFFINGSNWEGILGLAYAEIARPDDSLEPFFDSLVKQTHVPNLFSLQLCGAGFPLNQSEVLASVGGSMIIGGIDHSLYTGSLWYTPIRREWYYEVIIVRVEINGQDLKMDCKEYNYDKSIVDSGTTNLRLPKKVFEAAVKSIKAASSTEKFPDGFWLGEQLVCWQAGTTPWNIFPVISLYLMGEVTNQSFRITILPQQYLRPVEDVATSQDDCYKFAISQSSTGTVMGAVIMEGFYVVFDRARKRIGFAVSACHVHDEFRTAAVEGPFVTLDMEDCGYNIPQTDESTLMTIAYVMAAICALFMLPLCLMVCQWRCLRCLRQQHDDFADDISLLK

- Inhibition of BACE1 (in words): significantly less active
Structure (SMILES): C[C@@]12CC[C@H](O)[C@@H]3COC(=C31)C(=O)c1cc3c(OCCO)cccc3cc12 [Compound 1, Xestosaprol F]
